This note sets out measurements from ChEMBL document CHEMBL3576838, “Synthesis and in vitro and in vivo biological evaluation of substituted nitroquinoxalin-2-ones and 2,3-diones as novel trichomonacidal agents” (Eur J Med Chem, 2015).

The subject of data set [1] is Trichomonas vaginalis. The data set can be described thus: Trichomonicidal activity against Trichomonas vaginalis JH31A#4 trophozite assessed as inhibition of parasite growth after 24 hrs by resazurin redox dye based fluorimetric microtiter method. It is filed as functional, organism-based. The conditions noted are these: JH31A#4, 24 h. In general terms: The colour change of resazurin is a common sign of viable cells or microbes.

In data set [2] the test system is Trichomonas vaginalis. The data set can be described thus: Trichomonicidal activity against Trichomonas vaginalis JH31A#4 trophozite assessed as inhibition of parasite growth at 300 uM after 24 hrs by resazurin redox dye based fluorimetric microtiter method. It is filed as functional. The following applies: JH31A#4, 24 h.
The subject of data set [3] is Trichomonas vaginalis. Briefly: Trichomonicidal activity against Trichomonas vaginalis JH31A#4 trophozite assessed as inhibition of parasite growth at 150 uM after 24 hrs by resazurin redox dye based fluorimetric microtiter method. It counts as functional. The following applies: JH31A#4, 24 h.
The test system of data set [4] is Trichomonas vaginalis. The data set can be described thus: Trichomonicidal activity against Trichomonas vaginalis JH31A#4 trophozite assessed as inhibition of parasite growth at 75 uM after 24 hrs by resazurin redox dye based fluorimetric microtiter method. It is filed as functional. The conditions noted are these: JH31A#4, 24 h.
In data set [5] the test system is Trichomonas vaginalis. Briefly: Trichomonicidal activity against Trichomonas vaginalis JH31A#4 trophozite assessed as inhibition of parasite growth at 37.5 uM after 24 hrs by resazurin redox dye based fluorimetric microtiter method. It counts as functional. The conditions noted are these: JH31A#4, 24 h.
Data set [6] deals with Trichomonas vaginalis. Briefly: Trichomonicidal activity against Trichomonas vaginalis JH31A#4 trophozite assessed as inhibition of parasite growth at 18.75 uM after 24 hrs by resazurin redox dye based fluorimetric microtiter method. It is filed as functional. The conditions noted are these: JH31A#4, 24 h.
Data set [7] relates to Trichomonas vaginalis. The data set can be described thus: Trichomonicidal activity against Trichomonas vaginalis JH31A#4 trophozite assessed as inhibition of parasite growth at 9.37 uM after 24 hrs by resazurin redox dye based fluorimetric microtiter method. It is filed as functional. The following applies: JH31A#4, 24 h.
Data set [8] concerns Vero. The data set can be described thus: Cytotoxicity against African green monkey Vero cells at 300 uM after 24 hrs by resazurin redox dye based fluorimetric microtiter method. It counts as cell-based. The following applies: chlorocebus sabaeus.
Data set [9] can be described thus: Cytotoxicity against African green monkey Vero cells assessed as inhibition of cell growth after 24 hrs by resazurin redox dye based fluorimetric microtiter method. The following applies: chlorocebus sabaeus.
The nature of data set [10]: Selectivity index, ratio of CC50 for African green monkey Vero cells to IC50 for Trichomonas vaginalis JH31A#4 trophozite. It counts as functional.
For data set [11], the system named is Trichomonas vaginalis. Briefly: Trichomonicidal activity against Trichomonas vaginalis JH31A#4 trophozite assessed as inhibition of parasite growth at 10 ug/ml after 24 hrs by resazurin redox dye based fluorimetric microtiter method. It counts as functional. The conditions noted are these: JH31A#4, 24 h, read-out: GI.

A word on the IC50: it is the point on the concentration scale where inhibition reaches its midpoint. The inhibition is the drop in the measured response relative to a control, in per cent. The term CC50 denotes the concentration at which the toxic effect on the cells reaches its halfway point. Take `CCN(CC)CCCN1CC(=O)N(C)c2cc([N+](=O)[O-])ccc21.Cl`: the IC50 in data set [1] was 32.4 µM. In addition, the inhibition at 300 µM in [2] was determined as 100%. Besides, in [3], the inhibition at 150 µM came to 100%. Moreover, the inhibition at 75 µM in [4] is 96.1%. In data set [5], the inhibition at 37.5 µM is 55.5%. In addition, in data set [6], the inhibition at 18.75 µM turned out to be 14%. Moreover, the inhibition at 9.37 µM in data set [7] is 1.8%. The same compound registered an Activity in [8] of 10.81%. Besides, the CC50 at 24 h in data set [9] was 1240 µM. Further, the “Ratio CC50/IC50” value in [10] came to 38.07.
For `O=c1[nH]c2cc([N+](=O)[O-])ccc2n(CCCCCl)c1=O`, the concentration for half-maximal inhibition (IC50) in data set [1] is 151 µM. In addition, the inhibition at 300 µM in data set [2] was 94.9%. The inhibition at 150 µM in data set [3] was found to be 40.6%. In data set [4], the inhibition at 75 µM was 21.4%. Moreover, in [5], the inhibition at 37.5 µM is 18%. Also, the inhibition at 18.75 µM in data set [6] worked out at 12.7%. In addition, the inhibition at 9.37 µM in [7] came out at 8.25%.
As for `CN1C(=O)CN(CCCN2CCCCC2)c2ccc([N+](=O)[O-])cc21`, in data set [1], the IC50 was found to be 110 µM. Further, in data set [11], the inhibition of growth at 10 µg/mL was 7%. Further, in data set [2], the inhibition at 300 µM came to 99.3%. Moreover, the inhibition at 150 µM in data set [3] came to 63.3%. In data set [4], the inhibition at 75 µM worked out at 28.4%. For the same compound, the inhibition at 37.5 µM in data set [5] amounted to 26.6%. Moreover, the inhibition at 18.75 µM in data set [6] turned out to be 18.6%. For the same compound, in data set [7], the inhibition at 9.37 µM turned out to be 6.97%.
On to `Cn1c(=O)c(=O)[nH]c2cc([N+](=O)[O-])ccc21`, for which the IC50 in data set [1] amounted to 111 µM. The inhibition at 300 µM in data set [2] amounted to 41.7%. In addition, in [3], the inhibition at 150 µM turned out to be 39%. For the same compound, the inhibition at 75 µM in [4] came out at 38.6%. Besides, the inhibition at 37.5 µM in data set [5] is 33.7%. In data set [6], the inhibition at 18.75 µM was 17.8%. In [7], the inhibition at 9.37 µM was 8.89%.
On to `CN(C)CCN1CC(=O)Nc2cc([N+](=O)[O-])ccc21.Cl`, for which the IC50 in [1] was 36.8 µM. Moreover, the inhibition of growth at 10 µg/mL in [11] turned out to be 7%. The inhibition at 300 µM in data set [2] is 98.5%. Besides, the inhibition at 150 µM in data set [3] was determined as 96.9%. Besides, the inhibition at 75 µM in data set [4] was 83.7%. For the same compound, the inhibition at 37.5 µM in [5] was found to be 40.8%. For the same compound, the inhibition at 18.75 µM in data set [6] stood at 28.4%. Moreover, the inhibition at 9.37 µM in data set [7] is 5.16%. Besides, the Activity in [8] is listed as 0%. For the same compound, the CC50 at 24 h in [9] is over 300 µM. For the same compound, the “Ratio CC50/IC50” value in data set [10] was over 10.
Regarding `O=C1CN(CCCCCCCl)c2ccc([N+](=O)[O-])cc2N1`, the inhibition of growth at 10 µg/mL in data set [11] was determined as 73%.
As for `CCN(CC)CCCN1CC(=O)Nc2cc([N+](=O)[O-])ccc21.Cl`, the half-inhibitory concentration (IC50) in [1] was 38.9 µM. In addition, the inhibition at 300 µM in data set [2] was 88.6%. Further, the inhibition at 150 µM in data set [3] came to 64.2%. Moreover, the inhibition at 75 µM in data set [4] was 59%. Also, the inhibition at 37.5 µM in [5] worked out at 55.5%. Besides, the inhibition at 18.75 µM in [6] stood at 28.8%. Besides, in data set [7], the inhibition at 9.37 µM amounted to 23.1%. Also, the Activity in data set [8] is 0.16%. For the same compound, the CC50 at 24 h in [9] was over 300 µM. In addition, the “Ratio CC50/IC50” value in data set [10] is over 10.
Take `Cn1c(=O)c(=O)n(CCCCCl)c2ccc([N+](=O)[O-])cc21`: in data set [1], the IC50 was determined as 179 µM. Further, the inhibition at 300 µM in data set [2] amounted to 68.5%. Moreover, the inhibition at 150 µM in [3] was determined as 52.7%. The inhibition at 75 µM in [4] was found to be 36.2%. Also, in [5], the inhibition at 37.5 µM came to 20.1%. Besides, the inhibition at 18.75 µM in data set [6] came out at 19.9%. Also, the inhibition at 9.37 µM in data set [7] is 11.8%.
As for `O=c1[nH]c2cc([N+](=O)[O-])ccc2n(CCCCCCl)c1=O`, the IC50 in [1] is 147 µM. Moreover, in [2], the inhibition at 300 µM came out at 94%. Besides, in data set [3], the inhibition at 150 µM was found to be 47.1%. The inhibition at 75 µM in data set [4] was determined as 9.7%. Moreover, in data set [5], the inhibition at 37.5 µM worked out at 0.85%. For the same compound, the inhibition at 18.75 µM in data set [6] came out at 0.42%. For the same compound, in data set [7], the inhibition at 9.37 µM came out at 0%.
On to `O=C1CN(CCCCCl)c2ccc([N+](=O)[O-])cc2N1`, for which the inhibition of growth at 10 µg/mL in [11] stood at 73%.
In the case of `CN1C(=O)CN(CCCO)c2ccc([N+](=O)[O-])cc21`, in data set [1], the IC50 amounted to 60.7 µM. Besides, the inhibition at 300 µM in data set [2] amounted to 94.8%. Besides, in [3], the inhibition at 150 µM is 77.2%. Moreover, the inhibition at 75 µM in data set [4] was 48.4%. Further, the inhibition at 37.5 µM in data set [5] worked out at 33.4%. Further, the inhibition at 18.75 µM in data set [6] is 19%. Besides, the inhibition at 9.37 µM in data set [7] is 6.39%. In data set [8], this compound came in with an Activity of 5.07%. Moreover, the CC50 at 24 h in [9] is over 300 µM. Besides, the “Ratio CC50/IC50” value in data set [10] is given as over 10.
Take `CN1C(=O)CN(CCCCCCCl)c2ccc([N+](=O)[O-])cc21`: the inhibition of growth at 10 µg/mL in data set [11] is 94%.
